The results in this text go back to paper PMC9356275, “A quantitative high-throughput screen identifies compounds that lower expression of the SCA2-and ALS-associated gene ATXN2” (The Journal of Biological Chemistry, 2022).

The subject of series [1] is ATXN2-luc. Put plainly: Secondary assays: ATXN2-luc in S2 and H2 cells, 12 doses, Bright-Glo. The format is cell-based, human. The settings on record: summary data; for IC50: ATXN2-luc luciferase assays in H2 and S2 cells, 12 doses plus a zero dose, read-out: Mean IC50; for min ATXN2-luc (%): minimum ATXN2-luc signal over 12 doses, H2 and S2 cells. The procedure:
(§1) The values for H2 and S2 were used as replicates to calculate IC50s and to assess cell viability.
(§2) Compounds were plated at 2× concentrations in phenol red–free DMEM in 25 μl in 384-well plates with each compound dose plated in triplicate. An equal volume of S2, H2, or SC cells (24,000 cells/well) suspended in phenol red–free DMEM with 10% fetal bovine serum and 1× penicillin/streptomycin were added. Cells were grown 24 h and then assayed first by using the CellTiter-Fluor reagent (20 μl) followed by the addition of Bright-Glo (65 μl) luciferase assay, using a multimode plate reader (Beckman; DT880). Values were reported as the mean ± SD with n = 3. IC50s were determined by the Hill coefficient method using an online tool (https://www.aatbio.com/tools/ic50-calculator).

For a further series, the system named is CMV-luc. Put plainly: Secondary assays: CMV-luc in SC cells, Bright-Glo. The note with it: minimum CMV-luc signal in SC cells over 12 doses; summary data. The format is cell-based, human. The procedure:
as §2

The test system of another series is S2, H2 or SC cells. Put plainly: Secondary assays: multiplexed cell viability (CellTiter-Fluor). The procedure:
as §1, §2

In series [2] the test system is ATXN2-luc. Put plainly: MSSR pilot screen: ATXN2-luc luciferase assay (Bright-Glo) in H2 cells, single 10 μM dose. The series is classed as cell-based, human. The settings on record: for SD from mean (ATXN2-luc, Z-score): H2 cells, single dose (title: 10 μM compound), overnight; for ¦Score/1SD¦: absolute score divided by 1SD (0.891 or 0.9).
Series [3] concerns ATXN2-luc. Put plainly: MSSR hit retest / multiconcentration testing: ATXN2-luc luciferase assay in H2 cells (1 and 10 μM). The note with it: for H2&S1 ave luc 1uM: 1 uM compound; for H2&S1 ave luc 10uM: 10 uM compound. The format is cell-based, human.
Series [4] relates to ATXN2-luc. Put plainly: MSSR hit retest: ATXN2-luc luciferase assay, average of H2 and S1 cells (1 and 10 uM). The format is cell-based, human. Also noted: H2&S1 ave luc 1uM / H2&S1 ave luc 10uM: scale not given here. The settings on record: average of H2 and S1 cells; for H2&S1 ave luc 10uM: head line r4 20 uM compound. An excerpt: (§3) Supplement mmc2.xlsx, sheet "43 annotated compounds"

A further series relates to H2 and S1 cells. Put plainly: Paired MTT viability assay, average of H2 and S1 cells (1 and 10 uM). Details: H2&S1 ave MTT 1uM / H2&S1 ave MTT 10uM: unit not given here. The format is cell-based, human.
Description: as §3
In general terms: Formazan colour is commonly taken as a measure of viable cells.

[5] abbreviates: minimum viability, multiplexed CellTiter-Fluor, over 12 doses, summary data.
The mark [6] stands for this setting: pilot screen at 10 µM compound, H2 cells expressing ATXN2-luc.
Where [7] appears, read: luciferase, average of H2 and S1 cells expressing ATXN2-luc, rescreen.
Where [8] appears, read: luciferase assay, average of H2 and S1 cells (both ATXN2-luc), rescreen from plated libraries.

The term IC50 denotes the concentration that gives 50% inhibition. As for `C[C@@H](Oc1ccc2[nH]nc(C=Cc3cnn(CCO)c3)c2c1)c1c(Cl)cncc1Cl` [NCGC00346459-01], in the series on ATXN2-luc [1], the IC50 turned out to be 1.39 µM and the “min ATXN2-luc (%)” value was determined as 15.2562%. Besides, in the series with CMV-luc, the “min SC luc (%)” value is on record as 64.272%. Besides, the “min viability (%)” value in the series on S2, H2 or SC cells (setting [5]) is reported as 66.1226%.

Take `Cc1cccc(Nc2nc(N[C@@H]3CCCC[C@H]3N)ncc2C(N)=O)c1` [NCGC00253909-01]: in the series on ATXN2-luc [1], the IC50 amounted to 25.4 µM and the “min ATXN2-luc (%)” value is reported as 64.2535%. In addition, the “min SC luc (%)” value with CMV-luc is 86.8204%. Further, the “min viability (%)” value with S2, H2 or SC cells came to 94.6197%.

`C[C@@]12OC(=O)[C@]1([C@@H](O)[C@@H]1C=CCCC1)NC(=O)[C@H]2CCCl` [NCGC00344630-01]: in the series on ATXN2-luc [1], the IC50 was 1.11 µM and the “min ATXN2-luc (%)” value amounted to 16.5036%. Besides, in the series on CMV-luc, the “min SC luc (%)” value came to 96.8804%. The “min viability (%)” value in the series on S2, H2 or SC cells (setting [5]) came out at 75.9573%.

`CN(c1ncccc1CNc1nc(Nc2ccc3c(c2)CC(=O)N3)ncc1C(F)(F)F)S(C)(=O)=O` [NCGC00242495-01, PF-00562271]: in the series with ATXN2-luc [1], the IC50 is 2.32 µM and the “min ATXN2-luc (%)” value came out at 15.5052%. Moreover, the “min SC luc (%)” value with CMV-luc is 98.3015%. Besides, the “min viability (%)” value with S2, H2 or SC cells (setting [5]) was found to be 64.5946%.

`CC(C)c1cc(-c2n[nH]c(=O)n2-c2ccc3c(ccn3C)c2)c(O)cc1O` [NCGC00346678-01]: in the series with ATXN2-luc [1], the IC50 was 0.03 µM and the “min ATXN2-luc (%)” value is listed as 17.7351%. For the same compound, in the series with CMV-luc, the “min SC luc (%)” value was 55.4123%. In addition, the “min viability (%)” value in the series on S2, H2 or SC cells (setting [5]) is on record as 77.8152%.

In the case of `O=c1[nH]c(=O)n([C@H]2C[C@H](O)[C@@H](CO)O2)cc1C(F)(F)F` [Trifluridine], the “SD from mean (ATXN2-luc, Z-score)” value with ATXN2-luc [2] is -5.158 SD. For the same compound, in the series on ATXN2-luc [2] (pilot screen), the “SD from mean (pilot screen)” value is on record as -5.158 SD and the “¦Score/1SD¦” value was found to be 5.79. Also, the “SD from mean (pilot screen)” value in the series with ATXN2-luc [2] (setting [6]) is reported as -5.158. Further, the “H2&S1 ave luc 1uM” value with ATXN2-luc [3] (setting [7]) was determined as 102. For the same compound, the activity at 1 µM in the series with ATXN2-luc [4] (Homo sapiens, 1 uM compound, read-out: H2&S1 ave luc 1uM) is 102%. Further, in the series on ATXN2-luc [4] (Homo sapiens, head line r3 10uM, read-out: H2&S1 ave luc 10uM), the activity at 10 µM is 71%. For the same compound, in the series on H2 and S1 cells (Homo sapiens, 1 uM compound, read-out: H2&S1 ave MTT 1uM), the viability at 1 µM stood at 80.3%. Further, the viability at 10 µM in the series with H2 and S1 cells (Homo sapiens, 10 uM compound, read-out: H2&S1 ave MTT 10uM) amounted to 53%.

For the compound `CCN(CC)CCCCCCCCOC(=O)c1cc(OC)c(OC)c(OC)c1` [TMB-8], the “SD from mean (ATXN2-luc, Z-score)” value with ATXN2-luc [2] was -5.740 SD. The entries for the “SD from mean (pilot screen)” value in the series with ATXN2-luc [2] (pilot screen) and with ATXN2-luc [2] (setting [6]) were -5.740 SD and -5.740, respectively. The “¦Score/1SD¦” value in the series on ATXN2-luc [2] (pilot screen) is 6.44. Further, the “H2&S1 ave luc 1uM” value in the series with ATXN2-luc [3] (setting [7]) and in the series with ATXN2-luc [4] (1 uM compound) was 66 in each case. In addition, the “H2&S1 ave luc 10uM” value with ATXN2-luc [3] (setting [7]) and in the series with ATXN2-luc [4] (head line r3 10uM) was 53 throughout. The “H2&S1 ave MTT 1uM” value with H2 and S1 cells (1 uM compound) is 73.9218. In addition, the “H2&S1 ave MTT 10uM” value in the series with H2 and S1 cells (10 uM compound) came to 52.1193.

As to Cyanocobalamin, in the series on ATXN2-luc [2], the “SD from mean (ATXN2-luc, Z-score)” value is on record as -2.681 SD. Moreover, the “SD from mean (pilot screen)” value with ATXN2-luc [2] (pilot screen) is recorded as -2.681 SD; with ATXN2-luc [2] (pilot screen, H2 cells expressing ATXN2-luc, single dose printed as 10 μM compound) it was -2.681. Moreover, the “¦Score/1SD¦” value with ATXN2-luc [2] (pilot screen) came to 3.01. Further, the “H2&S1 ave luc 1uM” value with ATXN2-luc [3] (setting [8]) and in the series with ATXN2-luc [4] (1 uM compound) was 110 in each case. Also, the “H2&S1 ave luc 10uM” value in the series on ATXN2-luc [3] (setting [8]) and in the series on ATXN2-luc [4] (head line r3 10uM) was 140 in each case. Moreover, the “H2&S1 ave MTT 1uM” value in the series with H2 and S1 cells (1 uM compound) was determined as 151.543. Further, in the series with H2 and S1 cells (10 uM compound), the “H2&S1 ave MTT 10uM” value came out at 134.855.
